Columns and labels:
[1] = system: HepG2; assay: MTT cytotoxicity assay, HepG2; format: cell-based, human; conditions: for inhibitive ratio: HepG2, 20 μmol/L, 48 h; for IC50: HepG2, 48 h, MTT
Method: (§1) The in vitro cytotoxicity of OD, 1–3 and the corresponding metal salts were determined by MTT assay towards a panel of human tumor cells including HepG2, T-24, BEL-7404, MGC80-3, SK-OV-3/DDP and normal HL-7702 cells. As the positive control, cisplatin was dissolved at a concentration of 1 mM in 0.154 M NaCl[32].
(§2) The human tumor cell lines (BEL-7404, HepG2, MGC80–3, T-24, SK-OV-3/DDP and HeLa cells) and the human normal liver cell line HL-7702 were obtained from Shanghai Cell Bank in Chinese Academy of Sciences. Cells were cultured in Dulbecco’s modified Eagle’s medium (DMEM) or RPMI-1640 medium, which supplemented with 10% fetal bovine serum (FBS) and 100 U/mL penicillin and streptomycin. Cells were cultured at 37 °C in a humidified atmosphere with 5% CO2/95% air. Tested compounds (2.0 mM) were prepared as DMSO stock solution before they were diluted to working concentrations by PBS buffer (containing 0.5% DMSO), while cisplatin dissolved in 0.9% sodium chloride solution was used as positive controls.
(§3) Cells in their logarithmic phase were seeded in 96-well plates with 5.5 × 10^3/180 μL per well for 24 h. Then 20 μL of compounds at various concentrations were added to each well to achieve final concentrations of 1.25, 2.5, 5.0, 10.0, and 20.0 μM. All the cells were incubated with test compounds for another 48 h before MTT assay. Control wells contained media with 0.5% DMSO. After 48 h of cultivation, 10 μL of MTT (5 mg/mL in PBS) was added to each well, and cells were incubated at 37 °C for 6 h. The contents in the wells were pipetted out carefully, and the formazan crystals formed were dissolved in 100 μL of DMSO, and the absorbance was measured by enzyme labeling instrument with 490 nm/630 nm double wavelength measurement. The IC50 value was defined as a drug concentration killing 50% cells in comparison with untreated controls, which was calculated by the Bliss method (n = 5). All tests were repeated in at least three independent trials.

[2] = system: T-24; assay: MTT cytotoxicity assay, T-24; format: cell-based, human; conditions: for inhibitive ratio: T-24, 20 μmol/L, 48 h; for IC50: T-24, 48 h, MTT
Method: as §1, §2, §3

[3] = system: BEL-7404; assay: MTT cytotoxicity assay, BEL-7404; format: cell-based, human; conditions: for inhibitive ratio: BEL-7404, 20 μmol/L, 48 h; for IC50: BEL-7404, 48 h, MTT
Method: as §1, §2, §3

[4] = system: MGC80-3; assay: MTT cytotoxicity assay, MGC80-3; format: cell-based, human; conditions: for inhibitive ratio: MGC80-3, 20 μmol/L, 48 h; for IC50: MGC80-3, 48 h, MTT
Method: as §1, §2, §3

[5] = system: SK-OV-3/DDP; assay: MTT cytotoxicity assay, SK-OV-3/DDP; format: cell-based, human; conditions: 48 h; for inhibitive ratio: SKOV-3/DDP, 20 μmol/L; for IC50: SK-OV-3/DDP, MTT
Method: as §1, §2, §3

[6] = system: HL-7702; assay: MTT cytotoxicity assay, normal liver cells HL-7702; format: cell-based, human; conditions: 48 h; for inhibitive ratio: HL-7702, 20 μmol/L; for IC50: HL-7702 normal liver cells, MTT
Method: as §1, §2, §3

[7] = system: HepG2 cells; assay: Comet assay for DNA damage; format: cell-based, human; set-up: unit not given here; conditions: HepG2, 1.0 μM, 24 h
Method: After the observation of significant S-phase arrest caused by 1–3, the study of DNA damage assay is necessary. The single cell gel electrophoresis technique (comet assay) is a simple, sensitive, reliable, and rapid method to detect DNA damage in eukaryotic cell[39]. As shown in Table 3 and Fig. 6, 1–3 at 1.0 μM induced DNA damage (fragmentation or unwinding) appeared as fluorescent comets with remarkable increase of tails size, especially for 3.
The comet assay is a simple method for measuring DNA strand breaks in cells. The comet assay reagent kit was purchased from Trevigen, and the experiment was carried out according to the manufacturer’s instructions. After treatment with OD and 1–3 at 1.0 μM, HepG2 cells were harvested and suspended at 1 × 10^6 Hep-G2 cells/mL in PBS. The cells suspension was mixed with melted LM agarose at a ratio of 1:10 (v/v). An aliquot (75 μL) of the mixture was immediately pipetted onto the slide (Comet Slide TM). After refrigeration for 30 min, the slide was immersed in pre-chilled lysis solution and left on ice for 60 min, followed by immersing in freshly prepared alkaline solution (300 mM NaOH, 1 mM EDTA, pH > 13) for 60 min on ice in darkness. After DNA unwinding, the slide was subjected to alkaline solution for electrophoresis in a Savant ps 250 system set at 300 mA and 1 volt/cm for 30 min. After electrophoresis, the slide was rinsed with distilled H2O, fixed in 70% ethanol for 5 min and air-dried overnight. DNA was stained with SYBR Green I (Trevigen) and visualized under a fluorescence microscope (Nikon, Eclipse E600).

[8] = system: HepG2; assay: Cell apoptosis assay by flow cytometry, Annexin V-FITC/PI; format: cell-based, human; conditions: HepG2, 5.0 μM, 24 h
Method: The quantitative analysis of apoptotic HepG2 induced by 1–3 (1.0, 2.0 and 5.0 μM) and their corresponding metal salts (5.0 μM) after 24 h treatment, were investigated by flow cytometry and Annexin V-FITC/PI double staining. As depicted in Figs 7 and S6, 1–3 caused a significant increase in apoptotic cells comparing to the untreated cells.
Cell cycle progression and apoptosis were determined by flow cytometric analysis. (a) Cell cycle arrest assay: HepG2 cells in their logarithmic phase were plated into 50 mL plates at a final density of 5−6 × 10^6 cells/well overnight, then they were treated with various doses (0.25, 0.5 and 1.0 μM) of 1–3 for another 24 h. Cells were trypsinized, collected, and fixed in ice-cold 75% ethanol at −20 °C overnight. After centrifugation, the fixed cells were rinsed with ice-cold phosphate buffered saline (PBS), and resuspended in 0.5 mL of PBS containing 100 μg/mL RNase, 50 μg/mL propidium iodide (PI) in the dark for 5−10 min. The cell cycle distribution was analyzed by FACS Calibur flow cytometer (BD) and calculated using ModFIT LT software. (b) Apoptosis assay: 1 × 10^5 HepG2 cells were plated in 6-well plates, after incubation for 24 h with complexes 1–3 at 1.0, 2.0 and 5.0 μM, cells were collected, and Apoptosis Detection kit FITC Annexin V was used to analyze the cell apoptosis according to the manufacturer’s instructions.

[9] = system: caspase-3; assay: Caspase-3 activation by flow cytometry (CaspGLOW); format: cell-based, human; conditions: HepG2, 1.0 μM, 24 h; control 4.2%
Method: (§4) Caspase family is closely related to the cell apoptosis via the mitochondrial pathway, especially caspases-3, -8 and -9. To better understand the antitumor mechanisms, it needs to confirm whether caspase-3, -8 and -9 are activated when the tumor cells are treated with 1–3.
(§5) The measurement of caspase-3, -8 and -9’s activities was performed by CaspGLOW fluorescein active caspase-3, -8 and -9 staining kit. HepG2 cells were treated with 1 μM 1–3 for 24 h, harvested at a density of 1 × 10^6 cells/mL, and then suspended in 300 μL volume with PBS. To the suspension, 1 μL of caspase-3 inhibitor (FITC-DEVD-FMK), caspase-8 inhibitor (FITC-IETD-FMK) or caspase-9 inhibitor (FITC-LEHD-FMK) was consequently added and incubated for 1 h at 37 °C in 5% CO2 incubator. The cells were then examined by a FACSAria II flow cytometer equipped with a 488 nm argon laser. The results were represented as the percent change on the activity compared with the control.

[10] = system: caspase-8; assay: Caspase-8 activation by flow cytometry (CaspGLOW); format: cell-based, human; conditions: HepG2, 1.0 μM, 24 h; control 1.8%
Method: as §4, §5

[11] = system: caspase-9; assay: Caspase-9 activation by flow cytometry (CaspGLOW); format: cell-based, human; conditions: HepG2, 1.0 μM, 24 h; control 1.9%
Method: as §4, §5

[12] = system: HepG2 xenograft; assay: HepG2 xenograft nude mice model, tumor growth inhibition; format: in vivo, BALB/c nude mice; conditions: 2.0 mg/kg ip every two days
Method: BALB/c nude mice (male, 17–20 g, 5–6 weeks old) were supplied by Guangxi Medical University Laboratory Animal Centre (Guangxi, China, approval no. SCXK 2014–0002 and SYXK 2014–0003). All of the experimental procedures were carried out according to the NIH Guidelines for the Care and Use of Laboratory Animals. Animal experiments were approved by the Animal Care and Use Committee of Guangxi Medical University. Animal were housed at IVC system (individual ventilated caging) with conditions of constant photoperiod (12 h light/12 h dark at 25−28 °C and 45−65% humidity). The xenograft tumor model was established in the same way as we reported before[30]. The maximum solubility of 3 in DMSO/saline solvent (v/v, 5/100) with administration volume 0.8 mL/20 g was used as the high dose (6.0 mg/kg) group (n = 6). Meanwhile low dose group mice got 3.0 mg/kg, intraperitoneal injection every day, and the control group received corresponding solvent. The positive control group was administered with cisplatin at 2.0 mg/kg every two days by intraperitoneal injection (cisplatin dissolved in saline).
The tumor volumes and body weight were measured every 3 days, and tumor size was calculated as volume = (w^2l)/2, where w is the width and l is the length in mm of tumor[70]. On day 21, the mice were sacrificed, and the tumor tissue was dissected out and weighted. The in vivo antitumor activity is evaluated by two indicators[71][72]: the tumor relative increment rate (T/C = TRTV/CRTV × 100%) and tumor weight inhibition rate [IR = (Wc − Wt)/Wc × 100%,], where TRTV and CRTV were the RTV of treated group and control group, respectively (RTV: relative tumor volume, RTV = Vt /V0); Wt and Wc are the average tumor weight of complex-treated and vehicle controlled group, respectively.

[13] = Body weight of mice in the HepG2 xenograft model; format: in vivo, BALB/c nude mice; conditions: 2.0 mg/kg ip every two days; permissible value 20%
Method: To further evaluate the in vivo antitumor efficacy of these complexes, 3 was selected to inhibit tumor growth in a HepG2 xenografts model. The mice were randomized into control group, 3-treated groups and positive control group (n = 6). Once the tumor had grown to an average volume of about 100 mm^3, two group of nude mice were injected intraperitoneally (ip) of 3 at a high dose (6.0 mg/kg) and a low (3.0 mg/kg) dose daily for 20 days, respectively. Cisplatin was used as positive control injected at 2.0 mg/kg every two days, while control group received solvents only.
BALB/c nude mice (male, 17–20 g, 5–6 weeks old) were supplied by Guangxi Medical University Laboratory Animal Centre (Guangxi, China, approval no. SCXK 2014–0002 and SYXK 2014–0003). All of the experimental procedures were carried out according to the NIH Guidelines for the Care and Use of Laboratory Animals. Animal experiments were approved by the Animal Care and Use Committee of Guangxi Medical University. Animal were housed at IVC system (individual ventilated caging) with conditions of constant photoperiod (12 h light/12 h dark at 25−28 °C and 45−65% humidity). The xenograft tumor model was established in the same way as we reported before. […]
The tumor volumes and body weight were measured every 3 days, and tumor size was calculated as volume = (w^2l)/2, where w is the width and l is the length in mm of tumor[70]. […]

Molecule	inhibitive ratio [1] [%]	inhibitive ratio [2] [%]	inhibitive ratio [3] [%]	inhibitive ratio [4] [%]	inhibitive ratio [5] [%]	inhibitive ratio [6] [%]	IC50 [1] [µM]	IC50 [2] [µM]	IC50 [3] [µM]	IC50 [4] [µM]	IC50 [5] [µM]	IC50 [6] [µM]	Comet length [7]	Olive tail moment [7]	Tail length [7]	Tail moment [7]	population of apoptotic cells [8] [%]	proportion of activated caspase-3 [9] [%]	proportion of activated caspase-8 [10] [%]	proportion of activated caspase-9 [11] [%]	also measured
[Co+2].[O-][Cl+3]([O-])([O-])[O-].[O-][Cl+3]([O-])([O-])[O-] [Co(ClO4)2, reference compound]	32.87±0.13	36.23±0.09	23.29±0.09	24.74±0.03	21.74±0.03	45.91±0187															
[Ni+2].[O-][Cl+3]([O-])([O-])[O-].[O-][Cl+3]([O-])([O-])[O-] [Ni(ClO4)2, reference compound]	32.57±0.29	37.86±0.19	32.31±0.07	16.35±0.09	11.25±0.12	50.14±0.06															
[O-][Cl+3]([O-])([O-])[O-].[O-][Cl+3]([O-])([O-])[O-].[Zn+2] [Zn(ClO4)2, reference compound]	30.94±0.39	28.19±0.13	24.07±0.15	17.63±0.07	12.33±0.05	43.18±0.19															
[Co(OD)2(H2O)2](ClO4)2 [Complex 1]	88.34± 1.03	85.35±0.73	63.96±0.78	61.54±0.33	78.17±1.69	56.73±0.14	0.66 ± 0.11	0.45 ± 0.17	8.98 ± 0.15	1.38 ± 0.14	0.26 ± 0.03	8.11 ± 0.55	65.45 ± 6.54	3.67 ± 2.09	8.01 ± 4.98	4.65 ± 1.34	33.1	45.1	35.3	27.7	
N.N.[Cl][Pt][Cl] [cisplatin, reference compound]	71.93±0.83	75.26±1.00	76.07±2.68	65.58±0.09	15.13±0.07	68.96±1.34	7.72 ± 0.83	7.48 ± 0.26	10 ± 0.53	16 ± 1.53	66 ± 1.53	5.18 ± 0.68									IR (tumor weight inhibition rate) [12]: 65.8%; drop in body weight [13]: 25.8%
[Ni(OD)2(CH3OH)2](ClO4)2 [Complex 2]	87.68 ±0.92	82.31±0.60	69.38±0.65	71.86±0.28	84.44±0.65	72.34±0.22	0.2 ± 0.09	0.23 ± 0.13	9.66 ± 0.35	2.86 ± 0.29	0.18 ± 0.03	5.35 ± 0.34	99.56 ± 10.57	20.56 ± 7.54	45.69 ± 8.27	29.52 ± 8.66	26.1	39.9	36.7	36.0	

From article PMC5402304, “Oxoaporphine Metal Complexes (Co^II, Ni^II, Zn^II) with High Antitumor Activity by Inducing Mitochondria-Mediated Apoptosis and S-phase Arrest in HepG2” (Scientific Reports, 2017)
